# Source: patent US8569274B2, “Progesterone antagonist and selective progesterone modulator in the treatment of excessive uterine bleeding” (Preglem S.A., priority 2007, dated 2013)
# Legend:
# Format in all cases: in vivo
# uterine bleeding [1] = assay: Case: person with Acute Lymphotic Leukemia, thrombocytopenia and uterine bleeding, oral treatment
# Description: A post-pubertal person is consulting for fever, infections, uterine bleeding, petechia and dyspnea. Blood test identifies anemia (Hb 7.8 g/dL), normal leucocyte count (WBC 8657 cells/μL) and thrombocytopenia (platelets: 13.476 cells/mm^3). […] A diagnosis of Acute Lymphotic Leukemia is confirmed. The patient undergoes blood and platelet transfusion to correct for anemia and coagulation disorder. On the same day, they start taking orally 10 mg/day of CDB-2914. […] On that day, Hb is 9.9 g/dL; WBC 6345 cells/μL; and platelet count is 42 000 cells/mm^3. They continue taking orally 10 mg/day of CDB2914 for controlling abnormal uterine bleeding. […] After 3 months, they achieve remission, Hb is 13.1 g/dL; leucocyte count is normal, platelet count is 176 000 cells/mm^3. Bone marrow biopsy confirmed normalization.
# uterine bleeding [2] = assay: Case: person with stage III Hodgkin disease, prevention of uterine bleeding during chemotherapy and irradiation; settings: 10 mg/day orally, started before chemotherapy (MOPP) and irradiation
# Excerpt: A person is consulting for pneumonia. They report a recent history of night sweats and weight loss. […] The diagnosis is a stage III of Hodgkin disease. Their condition indicates chemotherapy (MOPP) and extended irradiation. The main risk of the proposed therapy is bone marrow suppression. This is life-threatening by exposing the patient to severe infection and septicemia, but it is also associated with severe thrombopenia and diffuse bleeding including uterine bleeding. In order to prevent uterine bleeding, before initiating specific treatment for their Hodgkin disease, they are orally administered 10 mg/day of CDB-2914. Following initiation of chemotherapy and irradiation, severe bone marrow suppression is recorded and the patient is admitted in aseptic unit. […] CBD2914 administration is maintained as long as coagulation parameters are not normalized.
# uterine bleeding [3] = assay: Case: person on anticoagulant therapy with menorrhagia, oral treatment
# Description: A moderate smoker with a BMI at 32 is treated with anticoagulant therapy for an episode of pulmonary embolism resulting from a deep venous thrombosis in a leg. Despite effort to adapt their anticoagulation therapy, their menstruations are heavy (menorrhagia) and last for up to two weeks. Their Hb is at 9.2 gr/dL. […] Their thrombo-embolic condition precludes any therapy with oestrogens or progestins. Given, the absence of negative metabolic and pro-thrombotic effect of SPRM, they are orally administered 25 mg/day of Proellex® (CDB-4124). […] Their Hb progressively returned to normal (>12 gd/dL).
SMILES,"uterine bleeding during continued treatment (uterine bleeding [1]; 10 mg/day orally, 3 months, several episodes of thrombopenia and chemotherapy cycles, except for a few spotting)","time following initiation of treatment until uterine bleeding is stopped (uterine bleeding [1]; 10 mg/day orally, blood and platelet transfusion on the same day) [days]","menstrual bleeding after treatment is stopped (uterine bleeding [1]; after 3 months, remission)",uterine bleeding despite severe thrombopenia (uterine bleeding [2]),uterine bleeding after start of treatment (uterine bleeding [3]; 25 mg/day orally),uterine bleeding during the 12 weeks of anticoagulation therapy (uterine bleeding [3]; 25 mg/day orally),"Hb (uterine bleeding [3]; 25 mg/day orally, 9.2 gr/dL before treatment, progressively returned to normal) [gd/dL]",menstruations after treatment is stopped (uterine bleeding [3]; after anticoagulation therapy is stopped)
CC(=O)O[C@]1(C(C)=O)CC[C@H]2[C@@H]3CCC4=CC(=O)CCC4=C3[C@@H](c3ccc(N(C)C)cc3)C[C@@]21C [CDB-2914],remains in amenorrhea,5,"regular, normal menstrual bleeding are restored",remains in amenorrhea,,,,
"COCC(=O)[C@@]1(OC(C)=O)CC[C@H]2[C@@H]3CCC4=CC(=O)CCC4=C3[C@@H](c3ccc(N(C)C)cc3)C[C@@]21C [Proellex, 17[alpha]-acetoxy-21-methoxy-11β-[4-N,N-dimethylaminophenyl]-19-norpregna-4,9-diene-3,20-dione]",,,,,stopped after a few days,remain amenorrheic,> 12,resumed normal menstruations
